Results from patent US7566462B2, “Stable tablet formulation” (BioMarin Pharmaceutical Inc., priority 2004, dated 2009).

Legend:
[1] = Solid-state stability and hygroscopicity of polymorph B; type: physicochemical
[2] = room temperature; Berneggar and Blau 2002; cited from earlier work

Row | hygroscopicity [1] | Structure (SMILES) | thermodynamic stability [1] | behaviour at high humidity ([1]; percent relative humidity approaches 80%) | stability of the anhydrous polymorph ([1]; room temperature, atmospheric oxygen, normal humidity) | shelf-life [2] [h]
1 | slightly hygroscopic | C[C@H](O)[C@H](O)[C@H]1CNc2nc(N)[nH]c(=O)c2N1.Cl.Cl [polymorph B, (6R)-5,6,7,8-tetrahydrobiopterin dihydrochloride] | highest thermodynamic stability above about 20 °C | appears to take up much more water, loses its crystalline form, and becomes labile to oxidation | stable at room temperature to atmospheric oxygen and normal humidity | –
2 | – | C[C@H](O)[C@H](O)[C@H]1CNc2nc(N)[nH]c(=O)c2N1 [BH4, Tetrahydrobiopterin] | – | – | – | < 8
